Results on 6 compounds are retold here after publication PMC8097421 (Antimicrobial Agents and Chemotherapy, 2021).

As usually defined, the AUC(0-t) is the area under the concentration-time curve up to a stated or last time point. Read a high AUC(0-t) as more exposure. As usually defined, the half-life is the time needed for the level to fall by half in the phase considered. Broadly, the clearance is the volume of plasma or blood freed of the substance per unit of time. Low readings indicate inefficient removal, high ones efficient removal. As usually defined, the bioavailability is the share of a dose that reaches the circulation, judged against a reference dose that is usually intravenous. The term Tmax denotes the time at which the peak concentration occurs. Usually EC90 stands for the point of the concentration-response curve where the effect stands at 90%. For orientation: EC50 means the concentration giving half of the maximal effect. Low readings indicate greater potency, high ones weaker potency.

The conditions of data set [1]: human, in vivo.
Data set [2] in a line: in vivo. Particulars: male, cynomolgus, cynomolgus monkey, po, 30 mg/kg.
The nature of the next data set: clinical. Conditions: human, in vivo.
A short description of data set [3]: Clinical observation of nonhuman primates in the PK study. Format: in vivo, cynomolgus monkey. Particulars: NHP, oral AT-527 60 mg/kg loading then 30 mg/kg every 12 h.
Data set [4] is described as follows: Estimated oral bioavailability. Conditions: in vivo, species and source not stated.
Details of data set [5]: method as in doi:10.1016/S0168-8278(20)31210-1. Conditions: HCV-infected subjects, daily oral 550 mg with daclatasvir for up to 12 weeks; cited from earlier work.
Data set [6] can be described thus: Steady-state plasma pharmacokinetics in nonhuman primates after oral AT-527. Conditions: NHP plasma, oral AT-527 60 mg/kg loading then 30 mg/kg every 12 h.
For data set [7], the system named is MRC-5 (human lung fibroblast) cells. Particulars: 8 h, 10 µM.
Another data set has as its system Huh-7 cells. Conditions: human, 8 h, 10 µM.
Data set [8] deals with human bronchial epithelial (HBE) cells. Particulars: 10 µM.
For data set [9] the following is noted: male, cynomolgus monkey, in vivo.
For the next data set, the system named is NiRAN domain of nsp12. Set-up: method as in our unpublished data. Conditions: ref our unpublished data; cited from earlier work.
The nature of data set [10]: in vivo. Particulars: male, cynomolgus monkey; for half-life: po, 30 mg/kg.
The nature of data set [11]: in vitro. Particulars: human, intracellular half-life (t1/2) of AT-9010.
The nature of data set [12]: in vitro. Particulars: human, intracellular half-life (t1/2) of AT-9010. This is another data set of the same source.
Data set [13] has as its system primary human hepatocytes. Particulars: cited from earlier work.
The next data set deals with primary NHP hepatocytes. Particulars: cited from earlier work.
For data set [14], the system named is SARS-CoV-2 (USA-WA1/2020). Put plainly: microbe, parasite or virus in culture. Format: cell-based, SARS-CoV-2 (Betacoronavirus). Particulars: SARS-CoV-2, HAE cells.
Data set [15] can be described thus: in vitro. Conditions: human.
A further data set has as its system HCoV-229E. Put plainly: CPE assay, HCoV-229E in BHK-21 cells. It counts as cell-based, HCoV-229E (Alphacoronavirus). Conditions: Human coronavirus 229E, 72 h, 3-day incubation, MOI 0.01. The procedure:
(§1) To assess whether AT-511, a 2′-fluoro-2′-methyl guanosine nucleotide prodrug (Fig. 1), had antiviral activity against a seasonal human alpha coronavirus, HCoV-229E, BHK-21 (baby hamster kidney) cells were acutely infected with the virus and exposed to serial dilutions of the drug. […] Half-maximal cytotoxicity (CC50) measured by neutral red staining of compound-treated cells in the absence of virus indicated little to no toxicity was detected from either drug up to 100 μM.
(§2) AT-511 and sofosbuvir were dissolved in DMSO at 100 mM and then diluted in growth medium to final concentrations of 100, 20, 4, and 0.8 μM (two […] replicate plates each). After BHK-21 cells were grown to confluence in 96-well plates, growth medium was replaced with fresh maintenance medium (growth medium with 1% inactivated FBS in place of 10% FBS) containing serially diluted test compound and HCoV-229E at a multiplicity of infection (MOI) of 0.01. Uninfected cells in the presence of serially diluted compound were used to assess the cytotoxicity of compounds. After a 3-day incubation at 37°C in a humidified 5% CO2 atmosphere, cell viability was determined by the 3-(4,5-dimethyl-2-thiazolyl)-2,5-diphenyl-2H-tetrazolium bromide (MTT) method ([22]). […]

Data set [16] can be described thus: Cytotoxicity in uninfected BHK-21 cells. It counts as cell-based. Conditions: hamster, 3-day incubation, read-out: CPE assay CC50. The procedure:
as §1, §2

Marks after values point to notes of the source that are not given here. A value given as a limit tells only on which side of the number the result lay.

Regarding `C[C@@]1(F)[C@H](O)[C@@H](CO)O[C@H]1n1cnc2c(=O)[nH]c(N)nc21` [AT-273], in data set [1], the “absorption constant (Ka), population estimate” value is reported as 0.45 (±0.00253) h^−1; the “volume of central compartment (V1), population estimate” value was 2,070 (±146) liters; the “volume of peripheral compartment (V2), population estimate” value was 1,270 (±164) liters. In the data set “in vivo [2]”, this compound gave an AUC(0-t) of 1.56 ± 0.18 µM·h and a half-life of 960 min. Besides, the clearance in “clinical” was 3130 mL/min.

For the compound `CNc1nc(N)nc2c1ncn2C1OC(COP(=O)(NC(C)C(=O)OC(C)C)Oc2ccccc2)C(O)C1(C)F` (stereo not shown) [AT-527], the “unusual or adverse clinical signs” value in [3] is listed as “no such signs noted”. Besides, in data set [4], the bioavailability was ≥ 50%. Besides, in [5], the safety and tolerability result is “safe and well tolerated”.

On to `CNc1nc(N)nc2c1ncn2[C@@H]1O[C@H](CO[P@](=O)(O)N[C@@H](C)C(=O)O)[C@@H](O)[C@@]1(C)F` [AT-551], for which the time to peak (Tmax) in the data set “in vivo [2]” was in the range of 1 to 4 h. In [6], the “AUC0–12” value was 4.35 ± 1.77 µM·h.

For `C[C@@]1(F)[C@H](O)[C@@H](COP(=O)(O)OP(=O)(O)OP(=O)(O)O)O[C@H]1n1cnc2c(=O)[nH]c(N)nc21` [AT-9010], the results for the AT-9010 formed (in data set [7]; in the data set with Huh-7 cells) were 26.5 ± 0.5 pmol/10^6 cells and 182 ± 6 pmol/10^6 cells, respectively. Moreover, in data set [8], the “in vitro t1/2 of the TP, fold longer than in hepatocytes” value was 4. The “AT-9010 lung-to-liver concentration ratio” value in data set [9] (12 h) is 1.6. Moreover, the “AT-9010 in liver samples at 48-h postdose” value in [9] (48 h) was “no peak corresponding to AT-9010 was detected”. For the same compound, the “inhibition of NiRAN” value with NiRAN domain of nsp12 is listed as “potent inhibitor”. The concentration at 12 h in “in vivo [10]” (AT-9010 concentration in kidney) was found to be 130 ± 40 nM; in the data set “in vivo [10]” (AT-9010 concentration in liver tissue) it was 90 ± 30 nM; in the data set “in vivo [10]” (AT-9010 concentration in lung tissue), 140 ± 110 nM. Besides, the half-life was 510 min in the data set “in vivo [10]” (estimated half-life of AT-9010 in kidney tissue) and 564 min in the data set “in vivo [10]” (estimated half-life of AT-9010 in lung tissue). In addition, the half-life at 10 µM in “in vitro [11]” and in “in vitro [12]” was 2280 to 2340 min in each case. Moreover, the “in vitro t1/2 of AT-9010” value (in data set [13]; in the data set on primary NHP hepatocytes) was 10 h in each case.

With `CC(C)C(=O)OC[C@H]1O[C@@H](n2ccc(NO)nc2=O)[C@H](O)[C@@H]1O` [Molnupiravir], the “Selectivity index (CC50/EC90)” value in data set [14] (CC50/EC90) is >4.9^c. For the same compound, the EC90 in [14] (Severe acute respiratory syndrome coronavirus 2, 120 h, 5-day incubation, read-out: VYR assay EC90) is 2800 ± 1000 nM. Moreover, the CC50 at 5 days in “in vitro [15]” was > 19 µM.

With `CC(C)OC(=O)[C@H](C)N[P@](=O)(OC[C@H]1O[C@@H](n2ccc(=O)[nH]c2=O)[C@](C)(F)[C@@H]1O)Oc1ccccc1` [Sofosbuvir], in the data set with HCoV-229E, the EC50 was > 100 µM. The CC50 at 3 days in [16] was > 100 µM.
